According to patent US11517597B2, “Method for improving skin condition with postbiotic extract” (CHAMBIO CO., LTD., priority 2020, dated 2022):

Assays:
[1] = system: Hs68 cells; experiment: Proliferation of Hs68 cells (MTT, OD570 converted to cell number); format: cell-based, Human; conditions: 24 hours
Method: (§1) • 2. Human foreskin fibroblast cell line Hs68 was purchased from the Bioresource Collection and Research Center of the Food Industry Research and Development Institute (BCRC of FIRDI, Taiwan). Hs68 cells were grown in a 10-cm Petri dish containing Dulbecco's Modified Eagle's Medium (DMEM) (Thermo Fisher Scientific) supplemented with 10% fetal bovine serum (FBS). The Hs68 cells were cultivated in an incubator with culture conditions set at 37° C. and 5% CO2. Medium change was performed every two to three days. Cell passage was performed when the cultured cells reached 80%-90% of confluence. • 3.
Hs68 cells were divided into 3 groups, including one control group and two experimental groups (i.e., experimental groups L and B). Each group of the Hs68 cells was incubated in a respective well of a 96-well culture plate containing 200 μL of DMEM at 1×10^4 cells/well, followed by cultivation in an incubator (37° C., 5% CO2) for 24 hours. […] The cell culture of the control group received no treatment.
After cultivation in an incubator (37° C., 5% CO2) for 24 hours, the respective resultant cell culture was stained with 3-(4,5-Dimethylthiazol-2-yl)-2,5-diphenyltetrazolium bromide (MTT), followed by subjecting the stained cells to determination of absorbance at a wavelength of 570 nm by a spectrophotometer. The OD570 values obtained were subsequently converted to cell numbers based on a correlation curve previously prepared by plotting different known cell numbers of Hs68 cells versus their OD570 values.
(§2) Hs68 cells were divided into 28 groups, including fourteen comparative groups (i.e., comparative groups 1 L to 7 L and 1H to 7H) and fourteen experimental groups (i.e., experimental groups 1 L to 7 L and 1B to 7B). Each group of the Hs68 cells was incubated in a respective well of a 96-well culture plate containing 200 μL of DMEM at 1×10^4 cells/well, followed by cultivation in an incubator (37° C., 5% CO2) for 24 hours.
After cultivation in an incubator (37° C., 5% CO2) for 24 hours, the cell number of each group was determined according to the method described in section C of this example. The fold increase of viable cells was calculated using the following Equation (II): C=D/E (II) where C=fold increase of viable cells • D=cell number of respective experimental group or comparative group • E=cell number of corresponding comparative group 1 L, 2 L, 3 L, 4 L, 5 L, 6 L, or 7 L

[2] = system: Hs68 cells; experiment: TGF-β content of Hs68 cells (ELISA); format: cell-based, Human; conditions: 24 hours
Method: as §1
General Procedures: • 1. Determination of transforming growth factor-β (TGF-β) content
The TGF-β content was determined using an enzyme-linked immunosorbent assay (ELISA) kit (Cat. No. 559119, BD Biosciences) in accordance with the manufacturer's instructions.
Hs68 cells were divided into 25 groups, including one control group, twelve comparative groups (i.e., comparative groups L-1 to L-6 and B-1 to B-6), and twelve experimental groups (i.e., experimental groups L-1 to L-6 and B-1 to B-6). Each group of the Hs68 cells was incubated in a respective well of a 96-well culture plate containing 200 μL of DMEM at 1×10^4 cells/well, followed by cultivation in an incubator (37° C., 5% CO2) for 24 hours. […] The cell culture of the control group received no treatment.
After cultivation in an incubator (37° C., 5% CO2) for 24 hours, the respective resultant cell culture was subjected to the determination of TGF-β content according to the method described in section 1 of “General Procedures”.
as §2

[3] = nutritional component only 100 mg/L (the reference group of Equation II)
[4] = nutritional component only 200 mg/L, relative to 100 mg/L group
[5] = nutritional component only 100 mg/L
[6] = nutritional component only 200 mg/L

Compound | Fold increase of viable Cells [1, 3] | Fold increase of viable Cells [1, 4] | TGF-β content [2, 5] [pg/mL] | TGF-β content [2, 6] [pg/mL]
N[C@H]1C(O)O[C@H](CO)[C@@H](O)[C@@H]1O (stereo partly drawn) [Glucosamine] | 1.0 | 1.1 | 51.1 | 61.3
O=C1O[C@H]([C@@H](O)CO)C(O)=C1O [Vitamin C] | 1.0 | 1.1 | 52.2 | 63.1
Chondroitin | 1.0 | 1.1 | 120.5 | 128.8
